Measurements reported in PMC9117288, “Origins of glycan selectivity in streptococcal Siglec-like adhesins suggest mechanisms of receptor adaptation” (Nature Communications, 2022).
Values after ≈ are worked out from the molar mass of the structure shown. Like-named read-outs stand apart in the source and are kept apart here.

Tests used:
SLBRSK678 = assay: ELISA, immobilized GST-SLBR; set-up: species or system Streptococcus sanguinis; details: labelled compound (biotinylated glycan); 500 nM immobilized GST-SLBR
SLBRUB10712 = assay: ELISA, immobilized GST-SLBR; set-up: species or system Streptococcus gordonii; details: labelled compound (biotinylated glycan); 500 nM immobilized GST-SLBR
SLBRHsa [1] = target: T1, SLBRHsa (Streptococcus gordonii, UniProt A8AWU7); format: binding; set-up: gene hsa; details: labelled compound (biotinylated glycan); 500 nM immobilized GST-SLBR
T1 sequence (A8AWU7 220-453): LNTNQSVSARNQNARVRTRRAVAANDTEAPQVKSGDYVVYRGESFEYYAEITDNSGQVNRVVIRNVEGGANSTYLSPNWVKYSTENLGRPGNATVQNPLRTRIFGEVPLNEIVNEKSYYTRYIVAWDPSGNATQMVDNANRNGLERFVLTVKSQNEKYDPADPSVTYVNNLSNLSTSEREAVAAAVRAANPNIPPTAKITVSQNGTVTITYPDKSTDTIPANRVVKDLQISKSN

SLBRGspB [2] = target: T2, SLBRGspB (Streptococcus gordonii, UniProt Q939N5); set-up: ELISA, binding of biotinylated glycans to immobilized GST-SLBR (500 nM), absorbance at 450 nm; details: biotinylated glycan, binder
T2 construct: gene gspB
T2 sequence (Q939N5 245-604): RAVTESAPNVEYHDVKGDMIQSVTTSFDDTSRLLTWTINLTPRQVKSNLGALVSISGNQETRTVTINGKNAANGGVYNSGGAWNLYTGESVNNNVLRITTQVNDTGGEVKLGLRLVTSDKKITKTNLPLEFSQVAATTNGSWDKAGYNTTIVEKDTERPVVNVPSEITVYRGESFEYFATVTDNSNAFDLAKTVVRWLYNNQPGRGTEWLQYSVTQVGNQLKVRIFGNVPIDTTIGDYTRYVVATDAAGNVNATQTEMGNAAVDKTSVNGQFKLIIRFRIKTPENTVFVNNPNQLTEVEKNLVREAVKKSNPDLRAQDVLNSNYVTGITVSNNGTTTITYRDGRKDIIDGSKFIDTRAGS

SLBRHsa [3] = target: T1, SLBRHsa; set-up: gene hsa; ELISA: GST fusion (pGEX-3X); crystals: His6-MBP tag cleaved with thrombin; E. coli; details: binder
SLBRGspB [4] = target: T2, SLBRGspB; assay: ELISA, immobilized GST-SLBR; format: binding; details: labelled compound (biotinylated glycan)

SMILES	EC50 (SLBRSK678) [µg/mL]	EC50 (SLBRUB10712) [µg/mL]	EC50 (SLBRHsa [1]) [nM]	also measured
CC(=O)N[C@H]1[C@H]([C@H](O)[C@H](O)CO)O[C@@](O[C@H]2[C@@H](O)[C@@H](CO)O[C@@H](O[C@H]3[C@H](O)[C@@H](NC(C)=O)C(O)O[C@@H]3CO)[C@@H]2O)(C(=O)O)C[C@@H]1O (stereo partly shown) [3’-sialyl-N-acetyllactosamine]	0.90 ± 0.51 (≈ 1.33 µM)	0.13 ± 0.19 (≈ 0.193 µM)	2390	EC50 (SLBRGspB [2]; read-out: 3'sLn): > 7410 nM
CC(=O)N[C@H]1[C@H]([C@H](O)[C@H](O)CO)O[C@@](O[C@H]2[C@@H](O)[C@@H](CO)O[C@@H](O[C@H]3[C@H](O)[C@@H](CO)OC(O)[C@@H]3NC(C)=O)[C@@H]2O)(C(=O)O)C[C@@H]1O (stereo partly shown) [sialyl Lewis^C]			993	EC50 (SLBRGspB [2]; read-out: sLe^C): > 7410 nM
CC(=O)N[C@H]1[C@H]([C@H](O)[C@H](O)CO)O[C@@](O[C@H]2[C@@H](O)[C@@H](CO)O[C@@H](O[C@H]3[C@H](O[C@@H]4O[C@@H](C)[C@@H](O)[C@@H](O)[C@@H]4O)[C@@H](NC(C)=O)C(O)O[C@@H]3COS(=O)(=O)O)[C@@H]2O)(C(=O)O)C[C@@H]1O (stereo partly shown) [6-O-sulfo-sialyl Lewis X]	0.63 ± 0.36 (≈ 0.699 µM)	0.14 ± 0.10 (≈ 0.155 µM)		EC50 (SLBRHsa [3]; read-out: 6S-sLe^X): > 5550 nM
CC(=O)N[C@H]1[C@H]([C@H](O)[C@H](O)CO)O[C@@](O[C@H]2[C@@H](O)[C@@H](CO)O[C@@H](O[C@H]3[C@@H](O)[C@@H](CO)OC(O)[C@@H]3NC(C)=O)[C@@H]2O)(C(=O)O)C[C@@H]1O (stereo partly shown) [sialyl-T antigen]			178	ELISA, immobilized GST-SLBR (SLBRGspB [4]): recapitulated here by ELISA showing concentration-dependent binding; EC50 (SLBRGspB [2]; read-out: sTa): 119 nM
CC(=O)N[C@H]1[C@H]([C@H](O)[C@H](O)CO)O[C@@](O[C@H]2[C@@H](O)[C@@H](CO)O[C@@H](O[C@@H]([C@H](O[C@@H]3O[C@@H](C)[C@@H](O)[C@@H](O)[C@@H]3O)[C@H](C=O)NC(C)=O)[C@H](O)CO)[C@@H]2O)(C(=O)O)C[C@@H]1O [sLe^X, sialyl Lewis X]				EC50 (SLBRHsa [3]; read-out: sLe^X): > 6090 nM
